Reference: patent EP2559435A1, “Rotigotine in the treatment of hemispatial neglect, stroke and deficits following stroke” (UCB Pharma GmbH, priority 2011, dated 2013)
Like-named read-outs stand apart in the source and are kept apart here.

Key:
[1] = tested on: patients with hernispatial neglect and unilateral weakness following right hemisphere stroke; assay: Vertical Corsi spatial working memory task, clinical trial; assay type: in vivo; details: in some patients
Protocol: (§1) A commercially available rotigotine TTS has been tested in a double-blind, randomised, placebo controlled trial of the dopamine agonist rotigotine in 16 patients aged over 18 years with hernispatial neglect and unilateral weakness following right hemisphere stroke.
(§2) Patients were assessed with a battery of standardised neglect tests, as well as with tests of working memory, selective and sustained attention and motor function. A replicated ABA double-blind, placebo-controlled N-of-1 randomised design (Edgington E, Onghena P. Randomization Tests (Statistics: a Series of Textbooks and Monographs). 4th ed. Chapman & Hall/CRC: 2007), which allows to evaluate the effectiveness of an intervention in small sample sizes. Each patient's performance was measured in three phases, each consisting of several assessment sessions: before treatment (phase A1), while receiving transdermal rotigotine (phase B) and after discontinuation of the drug - post treatment phase (phase A2). The exact duration of each phase was randomised across patients. […]
(§3) Phase A1 started on session 1 and its duration was randomised (across individuals) to between 5 and 9 days. […] Finally, phase A2, when patients were assessed after the discontinuation of rotigotine, was randomised to begin between sessions 13 and 17, and it lasted for the remaining 4 to 8 sessions. […]

[2] = tested on: patients with hernispatial neglect and unilateral weakness following right hemisphere stroke; assay: Selective and sustained attention (vigilance) task, clinical trial; assay type: in vivo
Protocol: as §1
(§4) Patients were assessed with a battery of standardised neglect tests, as well as with tests of working memory, selective and sustained attention and motor function. A replicated ABA double-blind, placebo-controlled N-of-1 randomised design (Edgington E, Onghena P. Randomization Tests (Statistics: a Series of Textbooks and Monographs). 4th ed. Chapman & Hall/CRC: 2007), which allows to evaluate the effectiveness of an intervention in small sample sizes. Each patient's performance was measured in three phases, each consisting of several assessment sessions: before treatment (phase A1), while receiving transdermal rotigotine (phase B) and after discontinuation of the drug - post treatment phase (phase A2). The exact duration of each phase was randomised across patients. Performance on rotigotine was compared with the pre-treatment baseline and post-treatment follow-up phases.
(§5) The effects of the drug were evaluated for the whole group of 16 patients, and, separately for two subgroups with different extent of involvement of the prefrontal cortex in the stroke lesion. The subgroups are defined according to the extent of involvement of the prefrontal cortex in the stroke lesion: a minimal prefrontal involvement subgroup (0%-15% of the prefrontal cortex affected) and an extensive prefrontal subgroup (33%-55% of the prefrontal cortex affected).
Phase A1 started on session 1 and its duration was randomised (across individuals) to between 5 and 9 days. Observations during this phase established the baseline performance. […] Finally, phase A2, when patients were assessed after the discontinuation of rotigotine, was randomised to begin between sessions 13 and 17, and it lasted for the remaining 4 to 8 sessions.
The subject had to identify high- or low- sallence targets among non targets on either side. % correct and reaction times are measured, further described in Barcelo et al. Nature Neuroscience 2000 3:399-403.
Participants detected targets (inverted triangles) among sequences of distractors (upright triangles) randomly presented to the ipsilesional and contralesional visual fields. […]
As a measure of selective attention, the ratio of the reaction time (RT) to high visual salience targets over the RT to low visual salience targets was used. Furthermore, using this task, sustained attention was quantified over time, by measuring the difference in RT and % correct responses between the first and the second half of each experimental session. […]

[3] = tested on: patients with hernispatial neglect and unilateral weakness following right hemisphere stroke; assay: Motricity Index (motor function on the affected side), clinical trial; assay type: in vivo; details: in some patients
Protocol: as §1, §2, §3

[4] = tested on: patients with hernispatial neglect and unilateral weakness following right hemisphere stroke; assay: Mesulam cancellation (visual search) task of hemispatial neglect, clinical trial; assay type: in vivo
Protocol: as §1, §4, §5
Phase A1 started on session 1 and its duration was randomised (across individuals) to between 5 and 9 days. Observations during this phase established the baseline performance. Phase B, when rotigotine was administered, could commence on day 6 to day 10, and its duration was a minimum of 7 and a maximum of 11 sessions. During treatment phase, a rotigotine 9 mg patch (4mg/24hr transdermal absorption) was applied daily and worn for 24 hours a day. Finally, phase A2, when patients were assessed after the discontinuation of rotigotine, was randomised to begin between sessions 13 and 17, and it lasted for the remaining 4 to 8 sessions.
Each patient was randomly assigned a pattern of onset and duration of the treatment and baseline phases, within the duration limits described above. In this example, the patient had 6 baseline assessments (phase A1, sessions 1-6), followed by 8 days on rotigotine (sessions 7-14) and 6 follow-up assessments (phase A2, sessions 15-20) after discontinuation of the drug. […] Mid-grey depicts any additional sessions in phases A1 and A2 when the patient received placebo patches. Some other possible permutations of pre-treatment, treatment and post-treatment phases within the constraints of the design are shown in figure 1b. The actual difference in performance between treatment (B) and the off-treatment phases (A1 and A2) was ranked against the differences between phases produced by all other possible combinations of treatment allocation, given the limits in phase onset and duration. In total, there were 15 possible permutations.
This visuospatial scanning test-further described in Mesulam, M.-M. Principles of Behavioural Neurology; tests of directed attention and memory (Davis, Philadelphia, 1985) - with a cluttered array of symbols is performed on A3 sheets. In this test visual target objects are identified among distracters; targets identified are marked by the participant (black circles in fig. 2). There was a 2 minutes time limit for this task. […] Furthermore, on rotigotine, there was an improvement in the spatial bias of the responses, measured as the proportion of the targets identified on the left when compared to those identified on the right. In the minimal prefrontal involvement subgroup, rotigotine had again a significant positive effect in the number of targets identified on the left. […]

[5] = tested on: patients with hernispatial neglect and unilateral weakness following right hemisphere stroke; assay: Touchscreen cancellation task of hemispatial neglect, clinical trial; assay type: in vivo; details: group of all 16 patients; on rotigotine vs before treatment onset
Protocol: as §1, §2, §3

neglect patients = details: cited from earlier work

CCCN(CCc1cccs1)C1CCc2c(O)cccc2C1 (single isomer, unassigned; (-)) [rotigotine, (-)-5,6,7,8-tetrahydro-6-[propyl-[2-(2thienyl)ethyl]-amino]-1-naphthalenol]
spatial working memory (spatial span) [1]: improved spatial working memory | ratio of RT to high salience vs low salience targets ([2]; entire group, left sided targets, during treatment vs pre-treatment baseline): significant increase | ratio of RT to high salience vs low salience targets ([2]; entire group, left sided targets, treatment vs post-treatment baseline or average of both off-treatment phases): only marginal | ratio of RT to high salience vs low salience targets ([2]; extensive prefrontal subgroup, overall for both left and right-sided targets): significant beneficial effect | ratio of RT to high salience vs low salience targets ([2]; minimal prefrontal subgroup (e.g. left sided targets, comparison with off-treatment average)): no significant effect | motor function on the affected side (Motricity Index of the affected arm, leg and side) [3]: improved motor function on the affected side | number of targets found on the left side ([4]; entire group of 16 patients, on rotigotine vs pre- and post-treatment phases averaged or post-treatment phase alone): significantly higher | difference on- and off-treatment in the number of targets found on the left side relative to baseline ([4]; entire group of 16 patients, rotigotine 9 mg patch (4mg/24hr) daily, actual treatment allocation higher than mean difference of all possible permutations): 12.8% | effect size: less rightward bias relative to baseline (spatial bias in visual search) ([4]; entire group of 16 patients, rotigotine 9 mg patch (4mg/24hr) daily, actual treatment allocation in comparison to all possible permutations): 8.1% | spatial bias in visual search ([4]; entire group, on rotigotine vs post-treatment phase or both off-treatment phases): improved significantly | decrease in the number of targets found in a smaller area on the right hand side ([4]; entire patient group, during treatment): not statistically significant | spatial bias ([4]; extensive prefrontal group, on rotigotine): improved significantly | number of left targets found ([4]; extensive prefrontal subgroup (33%-55% of prefrontal cortex affected), on rotigotine): did not reach significance | number of targets identified in total ([4]; group of all 16 patients, on rotigotine): significantly larger number of targets | number of left targets found ([4]; minimal prefrontal subgroup (0%-15% of prefrontal cortex affected), on rotigotine): significantly higher | targets identified [5]: more targets were identified

NC12CC3CC(CC(C3)C1)C2 [amantadine]
effect on hemispatial neglect (neglect patients; small-scale trial in four neglect patients (Buxbaum et al. 2007)): did not demonstrate any beneficial effect

CN1CCc2cccc3c2[C@H]1Cc1ccc(O)c(O)c1-3 [Apomorphine]
effect on hemispatial neglect (neglect patients; four neglect patients tested (Geminiani et al. 1998)): transient improvement in three out of four neglect patients
